According to patent US12428415B2, “Matriptase 2 inhibitors and uses thereof” (Disc Medicine, Inc., priority 2018, dated 2025):

molecular target: T1, Human Recombinant Matriptase 2 (Homo sapiens, UniProt Q8IU80); experiment: Matriptase 2 fluorescence based inhibition assay, Method A (100 mM TRIS pH 9, 1 mg/mL BSA); assay type: biochemical; conditions: 1 uM; Assay Used A; read-out: Mar-2 % inhibition at 1 uM
T1 construct: purchased Enzo Life Sciences (an in-house preparation was also used) ALX-201-752-1
T1 sequence (Q8IU80 1-811): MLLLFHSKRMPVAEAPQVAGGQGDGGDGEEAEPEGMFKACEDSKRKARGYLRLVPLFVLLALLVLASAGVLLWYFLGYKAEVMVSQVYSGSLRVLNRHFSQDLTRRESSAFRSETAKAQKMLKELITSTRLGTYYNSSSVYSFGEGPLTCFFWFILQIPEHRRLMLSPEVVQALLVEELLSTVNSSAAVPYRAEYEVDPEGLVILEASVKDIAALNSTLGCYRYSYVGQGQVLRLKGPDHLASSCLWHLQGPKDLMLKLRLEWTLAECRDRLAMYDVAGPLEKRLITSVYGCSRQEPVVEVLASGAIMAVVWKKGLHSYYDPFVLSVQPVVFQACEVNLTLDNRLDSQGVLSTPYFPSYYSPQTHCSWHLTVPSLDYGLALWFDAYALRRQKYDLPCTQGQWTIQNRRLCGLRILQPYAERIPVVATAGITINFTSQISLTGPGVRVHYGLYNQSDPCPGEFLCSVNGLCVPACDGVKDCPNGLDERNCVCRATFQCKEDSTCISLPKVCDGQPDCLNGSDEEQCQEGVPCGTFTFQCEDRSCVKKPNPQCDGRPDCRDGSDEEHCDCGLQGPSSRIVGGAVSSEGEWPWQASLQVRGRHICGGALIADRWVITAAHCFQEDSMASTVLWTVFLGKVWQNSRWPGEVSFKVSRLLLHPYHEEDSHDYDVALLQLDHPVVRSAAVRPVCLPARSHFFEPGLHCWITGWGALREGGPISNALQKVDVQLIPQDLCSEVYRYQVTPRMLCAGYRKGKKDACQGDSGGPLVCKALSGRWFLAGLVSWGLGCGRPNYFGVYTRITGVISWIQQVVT
In short: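 At 25° C in 100 mM TRIS pH 9 with 1 mg/mL BSA and 1% DMSO, compounds were preincubated 30 min with 7 nM commercial or 15 nM in-house protein before adding 100 μM Boc-Gln-Ala-Arg-7-amido-4-methyl coumarin. Fluorescence at 360/480 nm after 60 min; single points at 1 and 10 μM, IC50 by variable-slope nonlinear regression.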

Compound | inhibition at 1 µM
N=C(N)c1ccc2cc(C(=O)NCC3CCCCC3)n(CCS(=O)(=O)c3ccccc3)c2c1 [Compound I-49] | 0 to 25%
CCOC(=O)NC(=N)c1ccc2cc(C(=O)Nc3ccc(N4CCCC4)cc3)n(Cc3ccc(C(N)=O)cc3)c2c1 [Compound I-119] | 0 to 25%
COC(=O)NC(=N)c1ccc2cc(C(=O)Nc3ccc(N4CCCC4)cc3)n(Cc3ccc(C(N)=O)cc3)c2c1 [Compound I-118, Methyl ((1-(4-carbamoylbenzyl)-2-((4-(pyrrolidin-1-yl)phenyl)carbamoyl)-1H-indol-6-yl)(imino)methyl)carbamate] | 0 to 25%
N=C(N)c1ccc2cc(C(=O)NC3CCN(CCN)CC3)n(CCc3ccccc3)c2c1 [Compound I-28, N-(1-(2-Aminoethyl)piperidin-4-yl)-6-carbamimidoyl-1-phenethyl-1H-indole-2-carboxamide] | 25 to 50%
N=C(N)c1ccc2cc(C(=O)N[C@@H](CO)c3ccccc3)n(Cc3ccc(C(N)=O)cc3)c2c1 [Compound I-85] | 0 to 25%
N=C(N)c1ccc2cc(C(=O)Nc3ccc(C(F)(F)F)cc3)n(CCS(=O)(=O)c3ccccc3)c2c1 [Compound I-43] | 0 to 25%
C[C@H](NC(=O)c1cc2ccc(C(=N)N)cc2n1Cc1ccc(C(N)=O)cc1)c1ccccc1 [Compound I-72] | 0 to 25%
CCOC(=O)c1ccc(Cn2c(C(=O)N[C@H]3CC[C@H](N)CC3)cc3ccc(C(=N)N)cc32)cc1 [Compound I-22, Ethyl 4-((2-(((1r,4r)-4-aminocyclohexyl)carbamoyl)-6-carbamimidoyl-1H-indol-1-yl)methyl)-benzoate] | 25 to 50%
N=C(N)c1ccc2cc(C(=O)NC3CCNCC3)n(Cc3ccc(C(F)(F)F)cc3)c2c1 [Compound I-5] | 25 to 50%
N=C(N)c1ccc2cc(C(=O)NCCC3CCCCC3)n(Cc3ccc(C(N)=O)cc3)c2c1 [Compound I-195] | 0 to 25%
N=C(N)c1ccc2cc(C(=O)Nc3ccc(N4CCCC4)c(F)c3)n(Cc3ccc(C(N)=O)cc3)c2c1 [Compound I-104] | 0 to 25%
N=C(N)c1ccc2cc(C(=O)Nc3ccc(N4CCCC4)nc3)n(Cc3ccc(C(N)=O)cc3)c2c1 [Compound I-177] | 0 to 25%
N=C(N)c1ccc2cc(C(=O)N[C@H]3CC[C@H](N)CC3)n(Cc3cccnc3)c2c1 [Compound I-18] | 25 to 50%
N=C(N)c1ccc2cc(C(=O)NCc3ccc(N4CCCC4)cc3)n(Cc3ccc(C(N)=O)cc3)c2c1 [Compound I-112] | 25 to 50%
N=C(N)c1ccc2cc(C(=O)Nc3cccc(-n4cccc4)c3)n(Cc3ccc(C(N)=O)cc3)c2c1 [Compound I-154] | 0 to 25%
CCCCOC(=O)NC(=N)c1ccc2cc(C(=O)Nc3cccc(N4CCCC4)c3)n(Cc3ccc(C(N)=O)cc3)c2c1 [Compound I-160] | 0 to 25%
N=C(N)c1ccc2cc(C(=O)Nc3ccc4[nH]cnc4c3)n(Cc3ccc(C(N)=O)cc3)c2c1 [Compound I-74] | 0 to 25%
C[C@H](NC(=O)c1cc2ccc(C(=N)N)cc2n1Cc1ccc(C(N)=O)cc1)c1cccc(F)c1 [Compound I-95] | 0 to 25%
N=C(N)c1ccc2cc(C(=O)Nc3ccc(C(=O)N4CCCC4)cc3)n(Cc3ccc(C(N)=O)cc3)c2c1 [Compound I-78] | 0 to 25%
N=C(N)c1ccc2cc(C(=O)Nc3ccc(N4CC[C@@H](F)C4)cc3)n(Cc3ccc(C(N)=O)cc3)c2c1 [Compound I-127] | 25 to 50%
N=C(N)c1ccc2cc(C(=O)NC3CCC(N4CCCC4)CC3)n(Cc3ccc(C(N)=O)cc3)c2c1 (centres unmarked) [Compound I-188] | 25 to 50%

same assay, conditions: at 1 uM; Assay Used = A; read-out: Mar-2 % inhibition at 1 uM

Compound | inhibition at 1 µM
N=C(N)c1ccc2cc(C(=O)N3CCc4ccccc4C3)n(Cc3ccc(NC(=O)CCN)cc3)c2c1 [Compound I-378] | 0 to 25%
N=C(N)NCCC1CCN(C(=O)c2cc3ccc(C(=N)N)cc3n2Cc2ccc(-c3ccccc3)cc2)CC1 [Compound I-361] | 0 to 25%
N=C(N)c1ccc2cc(C(=O)N[C@@H]3c4ccccc4C[C@H]3O)n(Cc3ccc(C(N)=O)cc3)c2c1 [Compound I-203] | 0 to 25%
N=C(N)c1ccc2cc(C(=O)N3CCC(F)CC3)n(Cc3ccc(C(F)(F)F)cc3)c2c1 [Compound I-282] | 0 to 25%
N=C(N)c1ccc2cc(C(=O)N3CC[C@@H](F)C3)n(Cc3ccc(Oc4ccccc4)cc3)c2c1 [Compound I-313] | 0 to 25%
N=C(N)c1ccc2cc(C(=O)N3CCC(CCN)CC3)n(Cc3ccc(C(F)(F)F)cc3)c2c1 [Compound I-278] | 0 to 25%
CC(C)(O)CNC(=O)c1cc2ccc(C(=N)N)cc2n1Cc1ccc(C(N)=O)cc1 [Compound I-208] | 0 to 25%
CN(CC1CCCCC1)C(=O)c1cc2ccc(C(=N)N)cc2n1Cc1ccc(C(N)=O)cc1 [Compound I-232, 6-Carbamimidoyl-1-(4-carbamoylbenzyl)-N-(cyclohexylmethyl)-N-methyl-1H-indole-2-carboxamide] | 0 to 25%
CN(C)C(=O)c1ccc(Cn2c(C(=O)N3CCC(F)(F)C3)cc3ccc(C(=N)N)cc32)cc1 [Compound I-386] | 0 to 25%
CN(C)C(=O)c1ccc(Cn2c(C(=O)NCC3CCCCC3)cc3ccc(C(=N)N)cc32)cc1 [Compound I-216, 6-Carbamimidoyl-N-(cyclohexylmethyl)-1-(4-(dimethylcarbamoyl)benzyl)-1H-indole-2-carboxamide] | 0 to 25%
N=C(N)c1ccc2cc(C(=O)NC3CCC(F)(F)CC3)n(Cc3ccc(-c4ccccc4)cc3)c2c1 [Compound I-235] | 0 to 25%
N=C(N)c1ccc2cc(C(=O)N3CC[C@@H](F)C3)n(CCS(=O)(=O)c3ccccc3)c2c1 [Compound I-341] | 0 to 25%
Cc1csc(NC(=O)c2cc3ccc(C(=N)N)cc3n2Cc2ccc(C(N)=O)cc2)n1 [Compound I-266] | 0 to 25%
N=C(N)c1ccc2c(N)c(C(=O)N3CCc4ccccc4C3)n(CCS(=O)(=O)c3ccccc3)c2c1 [Compound I-352] | 0 to 25%
N=C(N)c1ccc2cc(C(=O)N[C@H]3CC[C@H](NC(=O)CCN)CC3)n(Cc3ccc(Oc4ccccc4)cc3)c2c1 [Compound I-242, N-((1r,4r)-4-(3-Aminopropanamido)cyclohexyl)-6-carbamimidoyl-1-(4-phenoxybenzyl)-1H-indole-2-carboxamide] | 25 to 50%
N=C(N)c1ccc2cc(C(=O)NCC3CCCCC3)n(Cc3ccc(C(N)=O)c(Cl)c3)c2c1 [Compound I-229, 6-Carbamimidoyl-1-(3-Chloro-4-carbamoyl-benzyl)-N-(cyclohexylmethyl)-1H-indole-2-carboxamide] | 0 to 25%
N=C(N)c1ccc2cc(C(=O)NC3CCC(N)CC3)n(Cc3ccc(Oc4ccc(F)cc4)cc3)c2c1 (centres unmarked) [Compound I-243] | 50 to 75%
CN1CCC(NC(=O)c2cc3ccc(C(=N)N)cc3n2Cc2ccc(C(N)=O)cc2)CC1 [Compound I-206] | 25 to 50%
N=C(N)c1ccc2cc(C(=O)N3CCC(F)(F)C3)n(Cc3ccc(C(=O)NC4CC4)cc3)c2c1 [Compound I-387] | 0 to 25%
N=C(N)c1ccc2c(Cl)c(C(=O)N3CCC(F)CC3)n(Cc3ccc(-c4ccccc4)cc3)c2c1 [Compound I-353, 1-([1,1′-Biphenyl]-4-ylmethyl)-3-chloro-2-(4-fluoropiperidine-1-carbonyl)-1H-indole-6-carboximidamide] | 0 to 25%
CCOC(=O)Nc1c(C(=O)N[C@H]2CC[C@H](N)CC2)n(Cc2ccc(Oc3ccccc3)cc2)c2cc(C(=N)NO)ccc12 [Compound I-254, Ethyl (2-(((1r,4r)-4-aminocyclohexyl)carbamoyl)-6-((Z)—N′-hydroxycarbamimidoyl)-1-(4-phenoxybenzyl)-1H-indol-3-yl)carbamate] | 25 to 50%
N=C(N)c1ccc2cc(C(=O)N3CCC(F)(F)CC3)n(Cc3ccc(C(N)=O)cc3)c2c1 [Compound I-327] | 0 to 25%
N=C(N)c1ccc2cc(C(=O)N[C@H]3CC[C@H](N)CC3)n(Cc3ccc(Oc4ccc(F)cc4)nc3)c2c1 [Compound I-246] | 50 to 75%
N=C(N)c1ccc2cc(C(=O)N[C@H]3CC[C@H](N)CC3)n(Cc3cccc(Oc4ccccc4)c3)c2c1 [Compound I-240] | 50 to 75%
N=C(N)c1ccc2cc(C(=O)N3CCCC(F)(F)C3)n(Cc3ccc(Oc4ccccc4)cc3)c2c1 [Compound I-315] | 0 to 25%
C[C@@H](O)CNC(=O)c1cc2ccc(C(=N)N)cc2n1Cc1ccc(C(N)=O)cc1 [Compound I-207] | 0 to 25%
